Results reported in US20020086885A1, “Pharmaceutical composition” (priority 1998, published 2002).
Where a name gives a salt, the structure may show the parent alone.

Assays:
[1] = system: obese, diabetic KKA^y mice; settings: cited from earlier work
obese rats = settings: given together with troglitazone; cited from earlier work
[2] = system: noninsulin-dependent diabetic mellitus (NIDDM) patients; assay: Concomitant administration of pioglitazone hydrochloride and mazindol in NIDDM patients; type: in vivo, human
From the text: Effects of concomitant administration of pioglitazone hydrochloride and mazindol in noninsulin-dependent diabetic mellitus (NIDDM) patients were studied.

N=C(N)NCCC(=O)O [3-Guanidinopropionic acid]
weight gain in mice treated with pioglitazone hydrochloride [1]: antagonizes in a dose-dependent manner

C[C@H](Cc1ccc2c(c1)OC(C(=O)[O-])(C(=O)[O-])O2)NC[C@H](O)c1cccc(Cl)c1.[Na+].[Na+] [CL316243]
weight gain in brown adipose tissues caused by troglitazone (obese rats): completely inhibited

OC1(c2ccc(Cl)cc2)c2ccccc2C2=NCCN21 (stereo not shown) [mazindol]
body weight change ([2]; one NIDDM patient, mazindol 0.5 mg/day oral with placebo, 12 weeks, baseline 60.0 kg): 0.00 kg

CCc1ccc(CCOc2ccc(CC3SC(=O)NC3=O)cc2)nc1 (stereo not shown) [pioglitazone hydrochloride, 5-[4-[2-(5-ethyl-2-pyridyl)ethoxy]benzyl]-2,4-thiazolidinedione]
body weight increased by ([2]; NIDDM patients, pioglitazone hydrochloride alone 45 mg/day oral, 12±2 weeks, means±standard deviation of 50 samples): 0.72 ± 2.06 kg
